In publication PMC3547732 (Chemistry Central Journal, 2012):

Columns and labels:
[1] = tested on: Triton induced hyperlipidemia; assay: Hypolipidemic activity in Triton induced hyperlipidemia in rats; type: in vivo, male Wistar rats; details: for lipid lowering in triton treated rats (total cholesterol and TG), in words: 30 mg/kg oral gavage; for Total Cholesterol / Triglyceride: Triton treated rats, 30 mg/kg oral gavage 2 h before Triton i.p., plasma 18 h after triton injection
Protocol: The rats were housed under optimal laboratory conditions, maintained on 12 h light and dark cycle and had free access to food (Hindustan Lever Products, Kolkata, India) and water. Animals were acclimatized to laboratory conditions before the tests. All experiments were carried out between 0900 and 1700 h. The experimental protocols were approved by the Institutional Animal Ethics Committee and conducted according to the Indian National Science Academy guidelines for the use and care of animals. Fifty five male Wistar rats were divided into the following 11 groups containing 5 animals in each group: Atrovastain and various solvates were freshly suspended in 0.5% carboxymethyl cellulose and administered by oral gavage. Two hours later, all groups except control animals received intraperitonial injection of Triton (100 mg/kg). Eighteen hours after triton injection, blood was collected from tail vein. Plasma was separated and stored at −20°C for further biochemical analysis. Total cholesterol and triglyceride were analyzed in plasma samples using diagnostic kits as per manufacturer instructions.

[2] = Enthalpy of solution by microreaction calorimetry; type: physicochemical; details: for Molar enthalpy of solution, Methanol ΔsolH (methanol) / Molar enthalpy of solution of Atorvastatin Calcium (ATC) (ΔsolH^1) in the solvent of the solvate / Molar enthalpy of solution in its own solvent, Solvates (ΔsolH^2): 25°C; for Molar enthalpy of solution in its own solvent, Solvates (ΔsolH^2): each solvate in its own solvent of solvation; for Enthalpy of solvation ΔsolvH: calculated by equation 3 from enthalpies of solution of drug and solvate in the solvent of solvation
Protocol: Molar enthalpy of solution (ΔHsol) was determined in phosphate buffer (pH8) as well as in methanol.
In order to determine the enthalpy associated with the solvation process the enthalpy of solution of a particular solvate was determined in its own solvent.
(3) ΔsolyH=ΔsolH^1−ΔsolH^2
Calorimetric studies were performed on Microreaction calorimeter obtained from Thermal Hazards Technology, UK. Two different solvents, viz, the phosphate buffer (pH 2) and methanol were used to determine the enthalpy of solution and the measurements were performed at 25°C. The size of sample used in this study ranged from 10 to 20 mg and was weighed (Sartorius Model CP225D) into a cylindrical glass tube covered with parafilm on one side. This cylindrical tube was submerged into the ampoule containing the solvent. A plunger with a cap was put from the open end of the tube. The same solvent was put into the reference ampoule. These were put into the sample and reference holes until both rest on the base of the holes. The apparatus was maintained at constant temperature at 25°C (±0.0005°C). The parafilm was shattered mechanically by means of plunger.

[3] = Enthalpy of solution by microreaction calorimetry; type: physicochemical; details: 25°C
[4] = Desolvation of solvates by DSC and TGA; type: physicochemical; details: for Desolvation temperature: DSC desolvation endotherm maximum, 10°C/min; for Enthalpy of desolvation, ΔdesolvH calculated from equation 4: calculated from enthalpies of solution, heat capacities and enthalpy of vapourization; for Enthalpy of desolvation per mole of solvent (binding energy): equation 1 from DSC desolvation enthalpy and TGA mass loss
Text: The desolvation temperatures account for the stability of solvates as the desolvation temperature in all these forms is much higher than the boiling point of the corresponding solvent. The quantitative estimate of the stability of these solvates is established by determining the binding energy for the solvents in all the solvates using equation 1 where the percent mass loss measured over the TG desolvation step of each solvate (ΔmS%) was related to the enthalpy change calculated over the corresponding DSC desolvation endotherm (ΔHSexp).
(1) ΔHS=ΔHSexp×100Δms%×Ms
where ΔHS (J mol^-1) is the enthalpy of desolvation (or binding energy) per mole of the bound solvent, MS is the molecular mass of the solvent.
(4) ΔdesolyH=ΔsolnH^2−ΔsolnH^1−ΔCPTdesoly−25+1/2ΔyapH
. A mass between 2–8 mg was taken into the aluminium pan, covered with lid and sealed. DSC curves were obtained under a nitrogen purge of 50 mL per minute at a heating rate of 10°C per minute with the temperature range from 50-350°C.
Loss of solvent from the samples was characterized by TGA obtained by TA Instruments-Waters LLC, USA. TGA traces were recorded at heating rates of 10°C per minute under a nitrogen purge of 50 ml per minute. Samples with masses between 1–10 mg were analyzed using platinum pan. Mass loss (%) was calculated based on the mass of the original sample.

Structure (SMILES)	lipid lowering in triton treated rats (total cholesterol and TG), in words [1]	Total Cholesterol [1] [mg/dL]	Triglyceride [1] [mg/dL]	Molar enthalpy of solution, Methanol ΔsolH (methanol) [2] [kJ/mol]	Molar enthalpy of solution, Phosphate buffer (pH8) ΔsolH [3] [kJ mol^-1]	Molar enthalpy of solution in its own solvent, Solvates (ΔsolH^2) [2] [kJ/mol]	Enthalpy of desolvation, ΔdesolvH calculated from equation 4 [4] [kJ/mol]	Enthalpy of desolvation per mole of solvent (binding energy) [4] [kJ/mol]	Enthalpy of desolvation, ΔdesolvH from DSC [4] [kJ/mol]	Enthalpy of solvation ΔsolvH [2] [kJ/mol]	further results
CC(C)c1c(C(=O)Nc2ccccc2)c(-c2ccccc2)c(-c2ccc(F)cc2)n1CC[C@@H](O)C[C@@H](O)CC(=O)O [ATC, Atorvastatin calcium, reference compound]	reduced lipid profile	198	169	19.11	21.89	–	–	–	–	–	Molar enthalpy of solution of Atorvastatin Calcium (ATC) (ΔsolH^1) in the solvent of the solvate ([2]; solvent of Solvate I (isopropyl alcohol)): -13.52 kJ/mol; Molar enthalpy of solution of Atorvastatin Calcium (ATC) (ΔsolH^1) in the solvent of the solvate ([2]; solvent of Solvate II (THF)): 10.85 kJ/mol; Molar enthalpy of solution of Atorvastatin Calcium (ATC) (ΔsolH^1) in the solvent of the solvate ([2]; solvent of Solvate III (ethanol)): 32.06 kJ/mol; Molar enthalpy of solution of Atorvastatin Calcium (ATC) (ΔsolH^1) in the solvent of the solvate ([2]; solvent of Solvate IV (t-butanol)): 34.85 kJ/mol; Molar enthalpy of solution of Atorvastatin Calcium (ATC) (ΔsolH^1) in the solvent of the solvate ([2]; solvent of Solvate V (methanol)): 16.35 kJ/mol; Molar enthalpy of solution of Atorvastatin Calcium (ATC) (ΔsolH^1) in the solvent of the solvate ([2]; solvent of Solvate VI (acetone + ethanol)): 41.20 kJ/mol; Molar enthalpy of solution of Atorvastatin Calcium (ATC) (ΔsolH^1) in the solvent of the solvate ([2]; solvent of Solvate VII (ethanol + water)): 112.49 kJ/mol; Molar enthalpy of solution of Atorvastatin Calcium (ATC) (ΔsolH^1) in the solvent of the solvate ([2]; solvent of Solvate VIII (1-butanol)): 13.36 kJ/mol
CC(C)c1c(C(=O)Nc2ccccc2)c(-c2ccccc2)c(-c2ccc(F)cc2)n1CC[C@@H](O)C[C@@H](O)CC(=O)[O-].CC(C)c1c(C(=O)Nc2ccccc2)c(-c2ccccc2)c(-c2ccc(F)cc2)n1CC[C@@H](O)C[C@@H](O)CC(=O)[O-].CCO.[Ca+2] [Solvate III]	–	203	172	3.05	5.46	-7.61	34.39	63.34	44.69	–	Desolvation temperature ([4]; listed as III): 90(±8) °C; Desolvation temperature ([4]; listed as Solvate- III): 90.42 °C
C1CCOC1.CC(C)c1c(C(=O)Nc2ccccc2)c(-c2ccccc2)c(-c2ccc(F)cc2)n1CC[C@@H](O)C[C@@H](O)CC(=O)[O-].CC(C)c1c(C(=O)Nc2ccccc2)c(-c2ccccc2)c(-c2ccc(F)cc2)n1CC[C@@H](O)C[C@@H](O)CC(=O)[O-].[Ca+2] [Solvate II]	–	201	170	9.95	14.31	-11.32	57.17	55.17	51.47	-22.17	Desolvation temperature ([4]; listed as Solvate- II): 98.89 °C; Desolvation temperature ([4]; listed as solvate II): 90(±8) °C
CC(C)(C)O.CC(C)c1c(C(=O)Nc2ccccc2)c(-c2ccccc2)c(-c2ccc(F)cc2)n1CC[C@@H](O)C[C@@H](O)CC(=O)[O-].CC(C)c1c(C(=O)Nc2ccccc2)c(-c2ccccc2)c(-c2ccc(F)cc2)n1CC[C@@H](O)C[C@@H](O)CC(=O)[O-].CC(C)c1c(C(=O)Nc2ccccc2)c(-c2ccccc2)c(-c2ccc(F)cc2)n1CC[C@@H](O)C[C@@H](O)CC(=O)[O-].CC(C)c1c(C(=O)Nc2ccccc2)c(-c2ccccc2)c(-c2ccc(F)cc2)n1CC[C@@H](O)C[C@@H](O)CC(=O)[O-].[Ca+2].[Ca+2] [Solvate IV]	–	204	168	5.45	11.50	3.16	78.31	136.63	78.85	-31.69	Desolvation temperature ([4]; listed as IV): 90(±8) °C; Desolvation temperature ([4]; listed as Solvate- IV): 83. 34 °C
CC(C)O.CC(C)c1c(C(=O)Nc2ccccc2)c(-c2ccccc2)c(-c2ccc(F)cc2)n1CC[C@@H](O)C[C@@H](O)CC(=O)[O-].CC(C)c1c(C(=O)Nc2ccccc2)c(-c2ccccc2)c(-c2ccc(F)cc2)n1CC[C@@H](O)C[C@@H](O)CC(=O)[O-].CC(C)c1c(C(=O)Nc2ccccc2)c(-c2ccccc2)c(-c2ccc(F)cc2)n1CC[C@@H](O)C[C@@H](O)CC(=O)[O-].CC(C)c1c(C(=O)Nc2ccccc2)c(-c2ccccc2)c(-c2ccc(F)cc2)n1CC[C@@H](O)C[C@@H](O)CC(=O)[O-].[Ca+2].[Ca+2] [Solvate I]	performed better than pure ATC	161	143	1.15	2.51	-24.45	25.93	141.41	24.20	-10.93	Desolvation temperature [4]: 84.71 °C
CC(C)c1c(C(=O)Nc2ccccc2)c(-c2ccccc2)c(-c2ccc(F)cc2)n1CC[C@@H](O)C[C@@H](O)CC(=O)[O-].CC(C)c1c(C(=O)Nc2ccccc2)c(-c2ccccc2)c(-c2ccc(F)cc2)n1CC[C@@H](O)C[C@@H](O)CC(=O)[O-].CCCCO.[Ca+2] [Solvate VIII]	performed better than pure ATC	152	140	0.57	–	-4.6	31.81	61.46	28.56	-17.96	Desolvation temperature [4]: 119. 5 °C; Molar enthalpy of solution, Phosphate buffer (pH8) ΔsolH ([3]; listed as Solvate- VIII): 1.17 kJ mol^-1; Molar enthalpy of solution, Phosphate buffer (pH8) ΔsolH ([3]; listed as solvate-VIII): 2.475 kJ mol^-1
CC(C)c1c(C(=O)Nc2ccccc2)c(-c2ccccc2)c(-c2ccc(F)cc2)n1CC[C@@H](O)C[C@@H](O)CC(=O)[O-].CC(C)c1c(C(=O)Nc2ccccc2)c(-c2ccccc2)c(-c2ccc(F)cc2)n1CC[C@@H](O)C[C@@H](O)CC(=O)[O-].CC(C)c1c(C(=O)Nc2ccccc2)c(-c2ccccc2)c(-c2ccc(F)cc2)n1CC[C@@H](O)C[C@@H](O)CC(=O)[O-].CC(C)c1c(C(=O)Nc2ccccc2)c(-c2ccccc2)c(-c2ccc(F)cc2)n1CC[C@@H](O)C[C@@H](O)CC(=O)[O-].CCO.O.O.[Ca+2].[Ca+2] [Solvate VII]	–	202	167	12.7	16.98	-4.25	103.96	106.61	104.64	-116.74	Desolvation temperature ([4]; listed as Solvate-VII): 105.13 °C; Desolvation temperature ([4]; listed as VII): 105.1 °C
